{
  "source": "patent US20190365675A1",
  "about": "“COMPOSITIONS FOR THE PREVENTION AND/OR TREATMENT OF ALCOHOL USE DISORDERS” (SERVICIO ANDALUZ DE SALUD, priority 2016, published 2019)",
  "assay_type_in_all_cases": "in vivo, Wistar rats",
  "key": {"MD2": {"test_system": "MD2", "assay": "MD2 protein expression in frontal cortex after ethanol intoxication", "conditions": "2-4 h after last ethanol, OEA pre-treatment", "protocol": "(§1) The animals were treated with intragastric (i.g.) ethanol 3 times a day using an i.g. cannula (16G needle, Fisher Scientific, Waltham, Mass., USA), following a protocol based on a slightly modified standard 4-day alcohol intoxication pattern (Bernier et al., 2002a, b) (FIG. 1A). The ethanol doses were administered every 8 h for a total time of 4 days. The rats treated with ethanol received an initial loading dose of 5 g/kg of ethanol in a 30% solution (w/v) and then a maximum maintenance dose of 3 g/kg, which were determined based on blood ethanol levels (BEL). This repeated standard alcohol intoxication paradigm kept BEL intoxication relatively constant in a range of sedation/ataxia (190 to 430 mg/dl, Table 3), according to the 6-point alcohol intoxication behavior scale (Majchrowicz, 1975). The mean dose of ethanol/rat/day (days 1-4) was 7.06 g/kg, similar to other studies (Obernier et al., 2002a, b). OEA (5 mg/kg, i.p., except initial dose of 10 mg/kg i.p.; synthesized as described in Giuffrida et al., 2000) was dissolved in the vehicle (5% Tween-80 in saline solution) and injected 10 minutes before each of the administrations of ethanol by an intragastric gavage. […] The autoradiograph was quantified by densitometry (NIH ImageJ® software, National Biosciences, Lincoln, Nebr. USA) and expressed as optical density (OD). […]"}, "iNOS": {"test_system": "iNOS", "assay": "iNOS mRNA in frontal cortex after ethanol intoxication", "conditions": "OEA pre-treatment", "protocol": "as §1, with “quantitative changes in mRNA levels were estimated” for “autoradiograph was quantified”, “means of RT-PCR, carried out in the presence of the SYBR green primer using a 20-L reaction in a Rotor-Gene (Corbett Research®, Mortlake, NSW, Australia).” for “densitometry (NIH ImageJ® software, National Biosciences, Lincoln, Nebr. USA) and expressed as optical density (OD).”"}, "4-hydroxynonenal (4-HNE)": {"test_system": "4-hydroxynonenal (4-HNE)", "assay": "Lipid peroxidation (HNE adduct ELISA) in frontal cortex after ethanol intoxication", "conditions": "significant only in animals treated with ethanol, OEA pre-treatment", "protocol": "The animals were treated with intragastric (i.g.) ethanol 3 times a day using an i.g. cannula (16G needle, Fisher Scientific, Waltham, Mass., USA), following a protocol based on a slightly modified standard 4-day alcohol intoxication pattern (Bernier et al., 2002a, b) (FIG. 1A). The ethanol doses were administered every 8 h for a total time of 4 days. The rats treated with ethanol received an initial loading dose of 5 g/kg of ethanol in a 30% solution (w/v) and then a maximum maintenance dose of 3 g/kg, which were determined based on blood ethanol levels (BEL). This repeated standard alcohol intoxication paradigm kept BEL intoxication relatively constant in a range of sedation/ataxia (190 to 430 mg/dl, Table 3), according to the 6-point alcohol intoxication behavior scale (Majchrowicz, 1975). The mean dose of ethanol/rat/day (days 1-4) was 7.06 g/kg, similar to other studies (Obernier et al., 2002a, b). OEA (5 mg/kg, i.p., except initial dose of 10 mg/kg i.p.; synthesized as described in Giuffrida et al., 2000) was dissolved in the vehicle (5% Tween-80 in saline solution) and injected 10 minutes before each of the administrations of ethanol by an intragastric gavage. […] The levels of HNE protein adducts in cerebral cortex lysates were measured using an OxiSelect™ HNE adduct competitive ELISA 96-well kit (Cell Biolabs®, San Diego, Calif., USA)."}},
  "data": [
    {"smiles": "CCCCCCCC/C=C\\CCCCCCCC(=O)NCCO", "note": "[OEA, oleoylethanolamide]", "values": [
      {"measurement": "Ethanol-induced increase in MD2 protein", "setting": "MD2", "value": "inhibited"},
      {"measurement": "Ethanol-induced increase in expression of iNOS mRNA", "setting": "iNOS", "value": "entirely prevented"},
      {"measurement": "Formation of HNE (lipid peroxidation)", "setting": "4-hydroxynonenal (4-HNE)", "value": "reduced"}
    ]}
  ]
}
